# Data as given in ChEMBL document CHEMBL1201862, “PubChem BioAssay data set” (2004).
# Activity calls are given as the source filed them.
# How the values were obtained:
# [1] = target: T1, Polyadenylate-binding protein 1 (Homo sapiens, UniProt P11940); assay: MLLE binding blockers, Cy5 peptide tracer – biochemical, fluorescence polarization, Cy5-PAM2 peptide, secondary, miRNA deadenylation inhibitor project, dose response (AID 602260); assay type: functional; conditions: read-out: IC50_Mean
# [2] = target: T2, Sentrin-specific protease 8 (Homo sapiens, UniProt Q96LD8); assay type: functional
# T2 sequence (Q96LD8 whole entry): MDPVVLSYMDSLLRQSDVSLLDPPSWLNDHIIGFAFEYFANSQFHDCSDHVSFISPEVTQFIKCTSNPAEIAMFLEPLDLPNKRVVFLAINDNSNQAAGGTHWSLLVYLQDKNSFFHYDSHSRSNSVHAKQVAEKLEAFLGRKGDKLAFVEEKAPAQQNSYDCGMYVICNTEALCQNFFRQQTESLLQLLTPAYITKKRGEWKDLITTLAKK
# [3] = target: T2, Sentrin-specific protease 8; assay type: functional; remark: listed apart in the source
# [4] = target: T1, Polyadenylate-binding protein 1; assay: MLLE domain peptide-binding blockers, IC50 – biochemical, fluorescence polarization, FITC-PAM2 peptide, dose response (AID 602259); assay type: functional; conditions: read-out: IC50_Mean
# Genome polyprotein = Genome polyprotein (dengue virus type 2, UniProt P29990); assay: flavivirus cap methylation enzyme inhibition – biochemical, confirmation dose response, primary screen (AID 588689); assay type: functional
# [5] = target: 72 kDa type IV collagenase (Homo sapiens, UniProt P08253); assay: Dose Response validation of uHTS RPN11 inhibitor hits using a MMP-2 Fluorescence assay.; assay type: functional
# Prothrombin = Prothrombin (Bos taurus, UniProt P00735); assay: thrombin protease inhibitors – biochemical, fluorescence polarization, uHTS hits, dose response (AID 602369); assay type: functional
# INS1 = assay: INS-1E survival protection against cytokine death – cell-based, luminescence, retest, dose response (AID 449756); assay type: functional; conditions: Rattus norvegicus;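 note: cell death triggered by IL-1 beta plus TNF-alpha plus IFN-gamma mixture; protective hits raise ATP signal compared with cytokine alone wells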
# [6] = target: 26S proteasome non-ATPase regulatory subunit 14 (Homo sapiens, UniProt O00487); assay: inhibition of proteasome subunit RPN11 – biochemical, fluorescence polarization, uHTS hits, confirmation (AID 602368); assay type: functional
# Sequence of 26S proteasome non-ATPase regulatory subunit 14 (O00487 whole entry, the tested form may be a part): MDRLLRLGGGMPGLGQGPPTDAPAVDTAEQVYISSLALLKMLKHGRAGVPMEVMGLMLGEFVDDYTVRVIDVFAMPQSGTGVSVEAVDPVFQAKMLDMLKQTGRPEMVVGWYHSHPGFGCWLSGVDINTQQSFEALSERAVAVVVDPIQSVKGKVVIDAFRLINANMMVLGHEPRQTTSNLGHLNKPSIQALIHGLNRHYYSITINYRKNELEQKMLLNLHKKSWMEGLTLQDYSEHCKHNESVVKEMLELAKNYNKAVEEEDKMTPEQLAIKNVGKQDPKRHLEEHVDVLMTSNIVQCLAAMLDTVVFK
# [7] = target: Arf-GAP with SH3 domain, ANK repeat and PH domain-containing protein 1 (Homo sapiens, UniProt Q9ULH1); assay type: functional;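 note: biochemical fluorescence polarization dose–response screen measuring inhibition of ASAP1; ASAP1 GAP domain stimulating GTP hydrolysis by truncated human ARF1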
# Sequence of Arf-GAP with SH3 domain, ANK repeat and PH domain-containing protein 1 (Q9ULH1 whole entry, the tested form may be a part): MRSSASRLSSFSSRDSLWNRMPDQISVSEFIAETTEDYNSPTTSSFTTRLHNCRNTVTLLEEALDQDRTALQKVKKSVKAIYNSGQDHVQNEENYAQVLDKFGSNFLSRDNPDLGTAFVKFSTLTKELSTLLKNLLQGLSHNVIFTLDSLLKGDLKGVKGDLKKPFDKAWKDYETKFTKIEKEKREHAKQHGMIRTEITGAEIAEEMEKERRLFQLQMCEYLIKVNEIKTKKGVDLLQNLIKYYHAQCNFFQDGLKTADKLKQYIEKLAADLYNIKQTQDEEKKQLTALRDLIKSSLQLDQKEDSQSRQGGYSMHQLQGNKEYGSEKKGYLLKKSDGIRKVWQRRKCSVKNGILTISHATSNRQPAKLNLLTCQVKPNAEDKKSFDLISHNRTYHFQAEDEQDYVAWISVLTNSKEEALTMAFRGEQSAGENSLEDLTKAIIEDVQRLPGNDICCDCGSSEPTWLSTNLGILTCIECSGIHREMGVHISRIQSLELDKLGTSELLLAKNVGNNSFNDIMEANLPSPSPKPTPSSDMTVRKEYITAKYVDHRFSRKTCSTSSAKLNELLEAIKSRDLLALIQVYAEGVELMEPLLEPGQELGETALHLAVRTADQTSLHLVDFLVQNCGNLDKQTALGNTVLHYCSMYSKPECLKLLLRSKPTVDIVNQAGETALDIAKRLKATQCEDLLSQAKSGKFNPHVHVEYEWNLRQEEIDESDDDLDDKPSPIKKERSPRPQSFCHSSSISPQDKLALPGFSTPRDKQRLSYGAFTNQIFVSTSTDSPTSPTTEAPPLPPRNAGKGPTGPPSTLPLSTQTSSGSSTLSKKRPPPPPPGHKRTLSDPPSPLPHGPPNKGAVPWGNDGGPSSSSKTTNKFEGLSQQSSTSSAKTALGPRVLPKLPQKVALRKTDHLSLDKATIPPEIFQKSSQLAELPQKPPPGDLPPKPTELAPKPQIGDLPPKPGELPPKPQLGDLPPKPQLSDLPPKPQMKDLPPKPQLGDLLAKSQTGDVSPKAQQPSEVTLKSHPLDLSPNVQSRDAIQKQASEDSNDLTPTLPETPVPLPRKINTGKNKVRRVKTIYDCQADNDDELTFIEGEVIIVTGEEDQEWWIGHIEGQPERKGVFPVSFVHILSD
# [8] = Luminescence Cell-Based Dose Retest to Confirm Inhibitors of Cancer Stem Cells. [Related pubchem assays (depositor defined):AID2717, AID2721]; assay type: functional; conditions: Homo sapiens
# [9] = target: T3, Apoptotic protease-activating factor 1 (Homo sapiens, UniProt O14727); assay: SAR analysis of small molecule Activators of Apaf-1 in a Fluorescent assay.; assay type: functional; conditions: read-out: EC50_Mean;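 note: caspase-3 cleavage of fluorogenic Rh110 DEVD substrate downstream of apoptosome activation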
# T3 sequence (O14727 whole entry): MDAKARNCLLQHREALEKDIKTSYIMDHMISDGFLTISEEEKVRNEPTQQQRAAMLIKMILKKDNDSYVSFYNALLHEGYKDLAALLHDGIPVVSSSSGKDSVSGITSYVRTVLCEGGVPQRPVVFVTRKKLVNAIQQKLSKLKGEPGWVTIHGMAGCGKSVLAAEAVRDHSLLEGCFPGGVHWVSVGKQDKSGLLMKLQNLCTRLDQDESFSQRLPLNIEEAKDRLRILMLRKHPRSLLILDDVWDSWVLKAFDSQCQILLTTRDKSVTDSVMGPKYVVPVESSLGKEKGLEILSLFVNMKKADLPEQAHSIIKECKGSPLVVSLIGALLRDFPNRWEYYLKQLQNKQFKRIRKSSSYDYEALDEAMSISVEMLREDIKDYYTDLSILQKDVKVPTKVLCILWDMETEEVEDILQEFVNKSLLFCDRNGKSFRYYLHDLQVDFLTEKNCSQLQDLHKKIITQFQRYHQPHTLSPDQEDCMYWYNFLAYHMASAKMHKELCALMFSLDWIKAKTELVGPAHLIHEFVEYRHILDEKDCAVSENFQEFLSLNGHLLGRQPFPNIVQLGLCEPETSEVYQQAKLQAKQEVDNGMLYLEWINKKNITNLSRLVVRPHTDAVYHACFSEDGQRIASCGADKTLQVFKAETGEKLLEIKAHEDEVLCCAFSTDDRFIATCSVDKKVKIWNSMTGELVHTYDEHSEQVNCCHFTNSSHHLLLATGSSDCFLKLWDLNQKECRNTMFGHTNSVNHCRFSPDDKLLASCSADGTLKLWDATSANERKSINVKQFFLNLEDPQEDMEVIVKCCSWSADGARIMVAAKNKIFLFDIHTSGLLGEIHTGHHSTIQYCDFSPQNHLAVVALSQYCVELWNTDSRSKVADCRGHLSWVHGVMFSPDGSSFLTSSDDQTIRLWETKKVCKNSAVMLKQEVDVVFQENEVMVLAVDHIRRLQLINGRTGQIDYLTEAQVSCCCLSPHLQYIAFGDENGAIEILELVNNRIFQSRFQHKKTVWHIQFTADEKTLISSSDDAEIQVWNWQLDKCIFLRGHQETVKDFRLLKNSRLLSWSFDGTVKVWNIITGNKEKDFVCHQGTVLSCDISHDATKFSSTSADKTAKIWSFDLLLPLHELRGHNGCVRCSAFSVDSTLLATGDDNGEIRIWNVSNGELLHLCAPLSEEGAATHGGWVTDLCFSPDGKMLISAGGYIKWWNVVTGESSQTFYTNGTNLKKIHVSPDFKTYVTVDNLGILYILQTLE
# [10] = viability loss in HEK293T cells – cell-based, cherry-picks, cytotoxicity control for HIV Vif inhibitor project, dose response (AID 652208); assay type: functional
# Steroidogenic factor 1 = Steroidogenic factor 1 (Homo sapiens, UniProt Q13285); assay: Counterscreen for inverse agonists of the liver receptor homolog-1 (LRH-1; NR5A2): Luminescence-based cell-based high throughput dose response assay to identify inverse agonists of the Steroidogenic Factor 1 Nuclear Receptor (SF1; NR5A1).; assay type: functional
# Sequence of Steroidogenic factor 1 (Q13285 whole entry): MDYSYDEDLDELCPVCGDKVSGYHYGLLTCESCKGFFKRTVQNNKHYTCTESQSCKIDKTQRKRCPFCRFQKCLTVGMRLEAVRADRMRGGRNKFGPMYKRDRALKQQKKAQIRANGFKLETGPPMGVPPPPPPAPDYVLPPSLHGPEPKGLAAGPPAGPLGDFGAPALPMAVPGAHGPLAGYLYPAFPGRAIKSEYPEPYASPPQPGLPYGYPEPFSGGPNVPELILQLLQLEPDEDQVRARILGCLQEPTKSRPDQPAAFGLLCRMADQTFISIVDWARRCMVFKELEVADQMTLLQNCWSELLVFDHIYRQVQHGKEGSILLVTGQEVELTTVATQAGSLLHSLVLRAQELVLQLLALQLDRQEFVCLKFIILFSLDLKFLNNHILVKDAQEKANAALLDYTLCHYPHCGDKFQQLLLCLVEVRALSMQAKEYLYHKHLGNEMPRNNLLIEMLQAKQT
# [11] = nonselective StAR promoter luciferase inhibitors – cell-based, luminescence, luciferase reporter, counter-screen for LRH-1 inverse agonist project, dose response (AID 651969); assay type: functional
# [12] = target: Nuclear receptor subfamily 5 group A member 2 (Homo sapiens, UniProt O00482); assay type: functional, cell-based;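 note: HEK293T cells transfected with LRH-1 and a StAR promoter luciferase reporter; potency for inhibitors that lower LRH-1 driven reporter light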
# Interleukin-8 = Interleukin-8 (Homo sapiens, UniProt P10145); assay: Dose Response confirmation of uHTS small molecule hits for cystic fibrosis induced NFkb Inhibitors in a PAF-induced IL8 counterscreen.; assay type: functional; conditions: read-out: IC50_Mean
# [13] = target: Adenosylmethionine-8-amino-7-oxononanoate aminotransferase (Mycobacterium tuberculosis, UniProt P9WQ81); assay: Mycobacterium tuberculosis BioA enzyme inhibitor Measured in Biochemical System Using Plate Reader - 2163-02_Inhibitor_Dose_CherryPick_Activity.; assay type: functional, Mycobacterium tuberculosis UT205
# cells = assay type: functional, cell-based
# [14] = target: T4, Nuclear receptor subfamily 0 group B member 1 (Homo sapiens, UniProt P51843); assay type: functional, cell-based;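 note: HEK293T cells transfected with SF-1 and DAX-1 plus StAR promoter luciferase reporter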
# T4 sequence (P51843 whole entry): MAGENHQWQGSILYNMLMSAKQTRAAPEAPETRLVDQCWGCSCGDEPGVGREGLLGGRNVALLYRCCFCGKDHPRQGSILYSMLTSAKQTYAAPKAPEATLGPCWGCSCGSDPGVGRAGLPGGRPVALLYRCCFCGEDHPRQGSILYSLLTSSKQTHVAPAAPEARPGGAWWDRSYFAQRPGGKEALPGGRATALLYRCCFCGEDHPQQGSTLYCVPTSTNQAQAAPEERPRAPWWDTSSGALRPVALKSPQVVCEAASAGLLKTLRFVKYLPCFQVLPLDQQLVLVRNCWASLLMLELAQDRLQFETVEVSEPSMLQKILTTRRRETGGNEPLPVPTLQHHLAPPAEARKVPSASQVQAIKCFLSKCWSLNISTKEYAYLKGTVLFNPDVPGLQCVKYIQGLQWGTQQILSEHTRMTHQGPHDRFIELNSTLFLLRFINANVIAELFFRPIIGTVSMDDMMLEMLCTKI
# [15] = Counterscreen for inhibitors of Trypanosoma brucei methionyl tRNA synthetase (MetRS): Luminescence-based cell-based high throughput dose response assay to identify compounds that are cytotoxic to Jurkat human T lymphocyte cells.; assay type: functional
# H9c2 = assay: cells; assay type: functional, cell-based; conditions: Rattus norvegicus, H9c2, Myocardium;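 note: confirmatory concentration-response retest of ultra-high-throughput screening hits for modulation of myocardial damage; cell death induced by hydrogen peroxide oxidative stress; compound pretreatment for 60 min then peroxide exposure for 2 h; potency is for protecting the cells against peroxide damage rather than for killing them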
# [16] = target: T5, Interleukin-1 receptor-associated kinase 4 (Homo sapiens, UniProt Q9NWZ3); assay type: functional
# T5 sequence (Q9NWZ3 whole entry): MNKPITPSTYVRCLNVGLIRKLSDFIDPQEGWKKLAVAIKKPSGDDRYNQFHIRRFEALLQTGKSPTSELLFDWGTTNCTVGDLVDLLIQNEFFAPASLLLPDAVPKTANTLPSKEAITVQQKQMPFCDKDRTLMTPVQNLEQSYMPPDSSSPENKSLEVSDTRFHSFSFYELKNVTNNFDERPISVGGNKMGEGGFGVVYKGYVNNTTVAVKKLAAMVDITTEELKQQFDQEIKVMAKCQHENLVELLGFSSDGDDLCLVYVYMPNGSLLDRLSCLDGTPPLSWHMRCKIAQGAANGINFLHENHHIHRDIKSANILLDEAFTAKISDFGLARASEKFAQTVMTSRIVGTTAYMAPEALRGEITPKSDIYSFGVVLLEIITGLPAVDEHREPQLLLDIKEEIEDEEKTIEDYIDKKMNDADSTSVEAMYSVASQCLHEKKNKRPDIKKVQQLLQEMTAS
# [17] = target: Homeodomain-interacting protein kinase 2 (Homo sapiens, UniProt Q9H2X6); assay type: functional;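 note: measured within a kinome-wide kinase profiling panel, HIPK2 being one panel member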
# Sequence of Homeodomain-interacting protein kinase 2 (Q9H2X6 whole entry): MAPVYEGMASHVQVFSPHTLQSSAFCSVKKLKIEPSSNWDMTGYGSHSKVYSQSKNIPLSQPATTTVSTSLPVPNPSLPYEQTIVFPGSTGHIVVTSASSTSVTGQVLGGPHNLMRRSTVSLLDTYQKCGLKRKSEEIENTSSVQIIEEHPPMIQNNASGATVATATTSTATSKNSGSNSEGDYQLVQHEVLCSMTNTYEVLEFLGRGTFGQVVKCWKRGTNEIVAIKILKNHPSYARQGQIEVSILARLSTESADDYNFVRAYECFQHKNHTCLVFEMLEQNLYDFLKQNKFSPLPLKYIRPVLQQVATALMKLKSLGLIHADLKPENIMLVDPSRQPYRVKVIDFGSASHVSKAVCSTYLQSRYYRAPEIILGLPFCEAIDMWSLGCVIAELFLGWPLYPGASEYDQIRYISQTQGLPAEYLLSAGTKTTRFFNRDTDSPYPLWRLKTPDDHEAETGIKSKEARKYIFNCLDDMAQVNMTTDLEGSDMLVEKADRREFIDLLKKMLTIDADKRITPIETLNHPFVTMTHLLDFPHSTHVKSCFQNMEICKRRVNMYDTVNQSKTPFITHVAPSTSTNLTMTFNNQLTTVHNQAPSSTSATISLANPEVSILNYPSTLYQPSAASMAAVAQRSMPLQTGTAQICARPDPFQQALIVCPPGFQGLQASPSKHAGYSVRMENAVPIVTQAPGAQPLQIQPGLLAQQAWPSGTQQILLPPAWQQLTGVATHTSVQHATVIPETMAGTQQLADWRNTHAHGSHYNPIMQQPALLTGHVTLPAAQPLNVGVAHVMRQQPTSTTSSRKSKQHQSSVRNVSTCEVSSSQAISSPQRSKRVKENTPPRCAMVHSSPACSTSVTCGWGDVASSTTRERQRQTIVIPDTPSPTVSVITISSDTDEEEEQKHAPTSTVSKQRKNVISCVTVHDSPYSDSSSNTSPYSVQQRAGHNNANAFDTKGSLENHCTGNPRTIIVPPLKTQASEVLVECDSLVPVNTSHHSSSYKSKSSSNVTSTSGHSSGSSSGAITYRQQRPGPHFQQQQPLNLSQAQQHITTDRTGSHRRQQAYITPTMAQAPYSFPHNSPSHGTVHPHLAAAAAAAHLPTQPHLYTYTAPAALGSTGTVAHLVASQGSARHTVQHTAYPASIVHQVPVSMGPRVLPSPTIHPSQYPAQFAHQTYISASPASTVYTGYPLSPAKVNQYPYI
# [18] = target: Glycogen synthase kinase-3 beta (Homo sapiens, UniProt P49841); assay type: functional;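 note: value comes from a broad kinome profiling panel, with GSK3B as the panel member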
# Sequence of Glycogen synthase kinase-3 beta (P49841 whole entry): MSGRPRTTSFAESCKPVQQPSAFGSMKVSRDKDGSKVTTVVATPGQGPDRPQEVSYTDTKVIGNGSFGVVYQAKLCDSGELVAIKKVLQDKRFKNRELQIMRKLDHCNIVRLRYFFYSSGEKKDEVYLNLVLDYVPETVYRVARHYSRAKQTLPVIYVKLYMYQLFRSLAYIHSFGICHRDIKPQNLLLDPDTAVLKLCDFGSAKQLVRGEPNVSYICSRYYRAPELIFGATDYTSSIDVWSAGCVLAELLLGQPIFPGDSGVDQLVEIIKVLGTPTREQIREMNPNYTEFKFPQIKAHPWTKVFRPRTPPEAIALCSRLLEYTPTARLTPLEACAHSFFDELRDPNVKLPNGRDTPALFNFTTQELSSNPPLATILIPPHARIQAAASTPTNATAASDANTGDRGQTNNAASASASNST
# [19] = target: cAMP-dependent protein kinase catalytic subunit alpha (Homo sapiens, UniProt P17612); assay type: functional
# [20] = target: MAP kinase-interacting serine/threonine-protein kinase 2 (Homo sapiens, UniProt Q9HBH9); assay type: functional
# Sequence of MAP kinase-interacting serine/threonine-protein kinase 2 (Q9HBH9 whole entry): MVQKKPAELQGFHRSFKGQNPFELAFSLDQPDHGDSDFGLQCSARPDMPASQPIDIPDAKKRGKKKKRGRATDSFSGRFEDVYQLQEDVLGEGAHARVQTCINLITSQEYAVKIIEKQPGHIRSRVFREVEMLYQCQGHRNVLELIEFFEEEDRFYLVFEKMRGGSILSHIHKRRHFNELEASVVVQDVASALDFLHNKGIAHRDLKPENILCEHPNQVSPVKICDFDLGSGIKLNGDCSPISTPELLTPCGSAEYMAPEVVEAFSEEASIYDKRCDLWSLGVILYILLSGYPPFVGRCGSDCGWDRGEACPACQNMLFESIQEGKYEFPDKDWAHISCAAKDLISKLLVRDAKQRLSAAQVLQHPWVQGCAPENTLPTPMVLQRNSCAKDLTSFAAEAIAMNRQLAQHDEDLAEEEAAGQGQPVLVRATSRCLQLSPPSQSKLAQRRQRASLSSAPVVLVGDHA
# [21] = target: Mitogen-activated protein kinase kinase kinase kinase 4 (Homo sapiens, UniProt O95819); assay type: functional
# [22] = target: Serine/threonine-protein kinase pim-1 (Homo sapiens, UniProt P11309); assay type: functional
# Sequence of Serine/threonine-protein kinase pim-1 (P11309 whole entry): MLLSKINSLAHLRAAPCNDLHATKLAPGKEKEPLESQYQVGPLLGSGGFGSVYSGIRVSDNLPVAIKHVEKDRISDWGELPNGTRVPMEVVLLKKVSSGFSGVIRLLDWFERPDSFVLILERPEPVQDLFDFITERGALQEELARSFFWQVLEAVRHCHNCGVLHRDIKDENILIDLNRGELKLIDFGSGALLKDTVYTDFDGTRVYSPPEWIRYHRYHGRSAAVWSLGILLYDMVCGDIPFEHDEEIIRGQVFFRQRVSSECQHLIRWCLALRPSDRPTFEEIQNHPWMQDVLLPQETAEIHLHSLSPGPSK
# [23] = target: Cell division cycle 7-related protein kinase (Homo sapiens, UniProt O00311); assay type: functional;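 note: value obtained from a kinome-wide kinase panel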
# [24] = viability loss in HeLa cells – cytotoxicity control for MgcRacGAP inhibitor project, dose response (AID 624300); assay type: functional
# [25] = HGIII-sPLA2 enzyme inhibition potency – biochemical, QFRET, IC50, dose response (AID 743457);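 note: green fluorescence rise as the enzyme cleaves BODIPY PC-A2 in liposomes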
# [26] = viability of PTEN-deleted HCT116 cells – cell-based, HCT116 PTEN knockout, dose response (AID 1047); assay type: functional;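 note: HCT116 colon tumor cells with PTEN knocked out; cells exposed to compound for 60 hours before readout; potency for loss of cell viability measured by luminescence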
# [27] = viability of HCT116 lacking mutant beta-catenin – cell-based, human colon tumor, dose response (AID 1045); assay type: functional;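 note: HCT116 colon tumor cells with beta catenin knocked out; cells exposed to compound for 60 hours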
# [28] = Trypanosoma cruzi growth suppression in host cells – NIH3T3 host cells, beta-gal luminescence, confirmation (AID 2044); assay type: functional, cell-based;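 note: intracellular parasites grown in NIH/3T3 mouse fibroblasts as host cells; luminescent beta-galactosidase reporter signal from transgenic T. cruzi replicating inside host cells; inhibitors lower the luminescence signal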
# [29] = NIH3T3 cell viability loss – ATP luminescence, mouse fibroblasts, counter-screen, dose response (AID 2010); assay type: functional, cell-based;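 note: cells exposed to compound for about 90 hours before reading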
# [30] = target: Dual specificity protein kinase CLK4 (Homo sapiens, UniProt Q9HAZ1); assay type: functional
# T1 sequence (P11940 whole entry): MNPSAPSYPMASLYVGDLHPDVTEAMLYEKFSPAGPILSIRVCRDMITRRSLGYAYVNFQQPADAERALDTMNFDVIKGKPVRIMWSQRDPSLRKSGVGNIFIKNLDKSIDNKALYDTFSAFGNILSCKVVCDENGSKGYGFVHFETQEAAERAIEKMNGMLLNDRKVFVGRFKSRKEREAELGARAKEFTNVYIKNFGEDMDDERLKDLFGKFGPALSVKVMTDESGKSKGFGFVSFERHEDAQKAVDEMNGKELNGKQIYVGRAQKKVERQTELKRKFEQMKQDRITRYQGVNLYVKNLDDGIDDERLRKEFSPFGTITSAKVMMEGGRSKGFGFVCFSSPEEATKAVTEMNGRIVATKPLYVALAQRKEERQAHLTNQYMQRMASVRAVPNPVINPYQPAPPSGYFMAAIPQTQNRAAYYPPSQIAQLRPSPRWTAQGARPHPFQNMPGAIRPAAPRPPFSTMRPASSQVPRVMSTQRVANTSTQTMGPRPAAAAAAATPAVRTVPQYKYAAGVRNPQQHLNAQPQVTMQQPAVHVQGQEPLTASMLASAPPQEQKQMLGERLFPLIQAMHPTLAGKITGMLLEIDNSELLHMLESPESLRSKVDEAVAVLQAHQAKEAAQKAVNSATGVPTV
structure (smiles),measurement,setting,value
Oc1ccc(CN2CCCCC2)nc1O,IC50,[1],> 66 µM (inactive)
same,IC50,[2],3.73 µM (active)
same,IC50,[3],15.5 µM (active)
same,IC50,[4],57.9 µM (inactive)
same,IC50,Genome polyprotein,64.9 µM (active)
O=C(N/N=C/c1cc(Cl)ccc1O)c1ccc(Br)cc1,IC50,[5],10.3 µM (active)
same,IC50,Prothrombin,63.2 µM (active)
same,AC50,INS1,773 nM (active)
same,IC50,[6],12.7 µM (active)
same,IC50,[7],21.3 µM (inactive)
same,AC50,[8],1.09 µM (active)
COC(=O)[C@@H]1COC(c2cc([N+](=O)[O-])ccc2[N+](=O)[O-])=N1,EC50,[9],> 100 µM (inactive)
CCOc1cccc(C(=O)Nc2ccc3oc(Cc4ccc(Cl)cc4)nc3c2)c1,AC50,[10],> 52 µM (inactive)
Cc1ccc(NC(=O)CSc2nnc([C@@H]3CCCN3C(=O)OC(C)(C)C)o2)c(C)c1,IC50,Steroidogenic factor 1,0.932 µM (active)
same,IC50,[11],35.9 µM (inactive)
same,IC50,[12],1.33 µM (active)
CC(=O)Oc1ccccc1C(=O)Oc1ccc(/C=N/n2cnnc2)cc1,IC50,Interleukin-8,4.67 µM (active)
O=C(C[C@@H]1C[C@@H]2c3cc(NC(=O)c4cccnc4)ccc3O[C@@H]2[C@@H](CO)O1)NCCc1ccccc1,AC50,[13],6.92 µM (active)
C=CCOc1ccc(/C=N/Nc2ccccn2)cc1OC,IC50,cells,> 67.5 µM (inactive)
same,IC50,[14],> 67.5 µM (inactive)
Cc1cc(Cl)ccc1OCCCC(=O)NNC(=O)c1ccccc1O,IC50,[15],83.3 µM (inactive)
same,IC50,H9c2,> 79 µM (inactive)
c1cnc2[nH]cc(-c3ccnc(NCC4CCCCC4)n3)c2c1,Ki,[16],0.316 µM (active)
same,Ki,[17],15.8 nM (active)
same,Ki,[18],126 nM (active)
same,Ki,[19],200 nM (active)
same,Ki,[20],79.4 nM (active)
same,Ki,[21],20 nM (active)
same,Ki,[22],> 10 µM (inactive)
same,Ki,[23],7.94 nM (active)
O=C(Nc1nccs1)[C@H]1[C@H](CO)[C@H]2Cn3c(ccc(-c4cccnc4)c3=O)[C@H]2N1CC1CCCC1,AC50,[13],8.95 µM (active)
COc1ccccc1NC(=O)NNC(=O)c1ccc2ccccc2c1O,CC50,[24],100 µM (active)
same,IC50,[25],> 122 µM (inactive)
CCCCN1C(C)=CC(=C2C(=O)c3ccccc3C2=O)C=C1C,IC50,cells,> 67.5 µM (inactive)
same,IC50,[14],> 67.5 µM (inactive)
N#Cc1cc([N+](=O)[O-])ccc1Oc1cccc(/C=N/NC(=O)c2ccc(Cl)cc2)c1,EC50,[26],48.5 µM (active)
same,EC50,[27],51.9 µM (active)
same,EC50,[28],616 nM (active)
same,EC50,[29],> 60 µM (not active)
same,IC50,[7],32.8 µM (inactive)
CC(C)n1nc(C(=O)Nc2ccc(-n3cnnn3)cc2)c2ccccc2c1=O,AC50,[10],> 52 µM (inactive)
c1ccc(Cn2nnc(-c3ccc4[nH]ncc4c3)c2-c2ccccc2)cc1,Ki,[16],> 10 µM (inactive)
same,Ki,[17],1000 nM (active)
same,Ki,[18],10 nM (active)
same,Ki,[19],31.6 nM (active)
same,Ki,[20],39.8 nM (active)
same,Ki,[21],794 nM (active)
same,Ki,[22],3.16 µM (active)
same,Ki,[23],0.631 nM (active)
same,Ki,[30],5.01 nM (active)
COc1ccc(NC(=O)CSc2ccc3c(c2)OCCO3)cc1,IC50,Steroidogenic factor 1,5.7 µM (active)
same,IC50,[11],35.9 µM (inactive)
same,IC50,[12],35.9 µM (inactive)
